From patent publication US20240158465A1, “METHOD FOR INDUCING AND DETECTING SOLUBLE LOX-1 (sLOX-1) IN CULTURED BLOOD CLOTS” (GEORGE MASON UNIVERSITY, priority 2022, published 2024)

Legend:
[1] = tested on: heparinized anticoagulated blood; assay: Reversal of heparin anticoagulation to form viable cultured blood clots; format: cell-based; settings: 4 hours at 37° C.; chitosan 99% DDA, 3 kDa or 10 kDa
Text: The degree of deacetylation is preferably from 90% to 100% and the molecular weight is preferably at least 3,000 Da and at most 500,000 Da.

[2] = tested on: HEK293 human Lox-1 overexpression system; assay: sLox-1 production in HEK293 human Lox-1 overexpression system; format: cell-based
Text: Thrombin, for example, had no effect on sLox-1 production in our HEK293 human Lox-1 overexpression system. The enzymes responsible for sLox-1 shedding are under intense debate and not yet identified in neutrophils. Close scrutiny of PR3 leads hypothesize it is a novel neutrophil-specific sheddase of sLox-1. PR3 is harbored in azurophilic and secretory granules of neutrophils. Upon release, PR3 associates with the neutrophil cell surface via CD177 in cholesterol-rich lipid rafts where Lox-1 is located. PR3 activity is believed to preserve endothelial barrier function during neutrophil extravasation. […] One study used trypsin digestion during sample preparation. The proposed sLox-1 cleavage motif is missing an aliphatic P1′ residue used by ADAM10 and ADAM17 to recognize a substrate. By contrast, the human Lox-1 cleavage region (QISA87R88QQA) has a very striking match with the PR3 cleavage site in IL-8 (AVLPRSA↓RKEL). […] (Table 5). The published cleavage sites for sLox-1 in bovine and human produce a non-conserved sLox-1 N-terminus, with NH2-Glutamine for human and NH2-Serine for bovine (Table 5). […] Potentially harmful bystander elastase activity of PR3 [73] could be suppressed by high levels of alpha-1 antitrypsin or ceruloplasmin that we detected by LC-MS in plasma and serum.

HPAEC = assay: TER assay of endothelial barrier function; format: cell-based, human
Text: In FIG. 28 TER assay with HPAEC treated with 0.2 U/mL thrombin, 10% fresh serum, 10% cultured clot serum or 10% LPS/cultured clot serum produced by peripheral blood collected from 4 healthy donors (N=2 tests per condition for donors 1 and 2 and N=1 test per condition for combined samples from donors 3 and 4). Mean ±standard deviation (N=4 thrombin and N=5 for all other conditions).

sLox-1 shedding by cells = settings: previous studies; cited from earlier work
cultured clots [3] = assay: CXCL8/IL-8 and IL-6 protein in cultured clot serum; format: cell-based, human; settings: cultured clot 4 h, 37° C.; for CXCL8/IL-8 protein in cultured clot serum: +100 ng/mL LPS or +10 mM bGP
Description: [Key: FB: fresh blood plasma, cC: cultured clot (4 h, 37° C.), Norm: cultured clot under Normoxia, Hyp: cultured clot under Hypoxia, Hep: heparin blood culture (4 h, 37° C.), +LPS: +100 ng/mL lipopolysaccharide, +bGP: +10 mM disodium beta glycerol phosphate].

cultured clots [4] = assay: RT-PCR of transcript levels in cultured clots; format: cell-based, human; settings: cultured clot 4 h, 37° C.
Description: Lanes: 1. Fresh whole blood (PAXgene); 2. Fresh blood clot (45 min, RT); 3. Cultured clot (4 h, 37° C.); 4. LPS/cultured clot (4 h, 37° C.); 5. Beta-glycerol phosphate cultured clot (4 h, 37° C.); 6. Cultured heparin blood (4 h, 37° C.). OLR1 was induced in all cultured clots (4) and in all cultured clots+LPS ([…]).

cultured blood clots = assay: sLox-1 shedding into cultured clot serum (ELISA); format: cell-based, human; settings: cultured clot 4 h, 37° C., vs cultured clot without additive, 100 ng/mL LPS, 10 mM bGP
Text: This is the enabling data for beta glycerol phosphate and PMA treated blood clots.
Parallel analysis of IL-8/CXCL8 in the cultured clot serum can be used to document test article cytocompatibility. The absence of IL6 in donor fresh blood can be used to verify there is no sepsis or bacteremia, and lack of IL-6 induction in the cultured clot serum can be used to identify sterile inflammation and test article purity (lack of endotoxin response).
In an embodiment, cultured clots were spiked with LPS by injecting an LPS solution into the vacutainer tube immediately after blood collection and before clot formation. These LPS/cultured clots shed even more sLox-1 into the serum than the paired cultured clots without LPS, in line with the known effect of LPS and downstream mediators (TNF, IL1A) in stimulating Lox-1 expression. (FIG. 2).
In an embodiment, a precision medicine tool is developed that detects Lox-1 induction in an ex vivo thrombus and shedding of soluble Lox-1 (sLox-1) into the serum. The tool consists of a red vacutainer tube with as little as 0.5 mL and more ideally 3 or 4 mL of peripheral whole venous blood, that is placed for 4 hours at 37° C.
The optimized cultured clot system involves placing a red cap vacutainer tube with anionic clot-activator at 37° C. for 4 hours after which serum may be collected. Serum contains a mixture of barrier-reducing and barrier-enhancing factors.

cultured clots [5] = assay: Neutrophil elastase (NE) release to cultured clot serum; format: cell-based, human; settings: cultured clot 4 h 37° C.; +10 mM bGP
Description: FB=fresh blood; FC=fresh clot ([…] RT incubation); cC=cultured clot (4 h 37° C.; +LPS=cC+100 ng/mL LPS; +bGP=cC+10 mM bGP. This is enabling data for using the cultured clot system to screen drugs for the ability to inhibit neutrophil degranulation in an assay that uses minimally modified whole blood, by measuring the level of NE and/or PR3, or other granule factors (myeloperoxidase, cathepsin G, elastase, metalloproteinases, defensins) in treated versus untreated cultured clot serum.

endothelial cells = settings: other studies; cited from earlier work

## protamine
[1]
  reversal of heparin anticoagulation, forming viable cultured blood clots: reverse heparin anticoagulation

## thrombin
[2]
  sLox-1 production: no effect
HPAEC; 0.6 hours post-stimulation, vs control, fresh serum
  effect on endothelial barrier function: transient loss of barrier function
HPAEC; HPAEC, 10% serum or 0.2 U/mL thrombin, 36 min, mean ± SD
  mean normalized resistance at 36 min: 0.48±0.03

## O=S(=O)(F)Cc1ccccc1 [PMSF, phenylmethylsulfonyl fluoride]
sLox-1 shedding by cells
  sLox-1 shedding by exposed cells: reduced sLox-1 shedding

## O=P([O-])([O-])OC(CO)CO.[Na+].[Na+] [bGP, disodium beta glycerol phosphate]
Cultured clots [3]
  CXCL8/IL-8 protein in cultured clot serum: does not alter
Cultured clots [4]; 10 mM
  CXCL8/IL-8 expression (RT-PCR): without suppressing
  TNF expression (RT-PCR): specifically suppressed
Cultured blood clots
  sLox-1 shedding into cultured clot serum: suppressed
Cultured blood clots; listed as phosphatase inhibitor
  sLox-1 shedding into cultured clot serum: inhibited
Cultured clots [5]
  neutrophil elastase (NE) release to serum: inhibited

## CCCCCCCCCCCCCC(=O)O[C@@H]1[C@@H](C)[C@@]2(O)[C@@H](C=C(CO)C[C@]3(O)C(=O)C(C)=C[C@@H]23)[C@@H]2C(C)(C)[C@]12OC(C)=O [PMA, phorbol myristate acetate]
Cultured blood clots
  sLox-1 shedding into cultured clot serum: enhanced

## CC(C)c1nc(N(C)S(C)(=O)=O)nc(-c2ccc(F)cc2)c1/C=C/[C@@H](O)C[C@@H](O)CC(=O)O [rosuvastatin]
Endothelial cells
  Lox-1 expression in endothelial cells: inhibited Lox-1 expression

## CC(C)C[C@H](CC(=O)NO)C(=O)N[C@@H](Cc1ccc2ccccc2c1)C(=O)N[C@@H](C)C(=O)NCCN [TAPI-1]
sLox-1 shedding by cells
  sLox-1 shedding by exposed cells: reduced sLox-1 shedding

## lipopolysaccharide [LPS]
Cultured clots [3]; +100 ng/mL LPS
  IL-6 protein in cultured clot serum: elevated
Cultured clots [3]
  CXCL8/IL-8 protein in cultured clot serum: elevated
Cultured clots [4]
  IL6 expression (RT-PCR): induced
Cultured blood clots
  sLox-1 shedding into cultured clot serum: increased
